Source: patent publication US20240269304A1, “BCL-XL INHIBITOR ANTIBODY-DRUG CONJUGATES AND METHODS OF USE THEREOF” (Novartis AG, priority 2020, published 2024)
Where two headings read alike, the source gives them in different places.

What was measured:
[1] = system: H1650 human non-small cell lung carcinoma (NSCLC) model; assay: In vivo efficacy of EGFR1-Bcl-xL inhibitor ADCs with different linker payloads in combination with docetaxel, H1650 xenografts (Example 16); design: species or system female SCID mice; conditions: 7.5 mg/kg i.v. once + docetaxel 7.5 mg/kg iv 24 h later; for ΔTumor volume (mm^3) D21: mean±SEM; for Statistics 21 vs EGFR-L109A-P1 / Statistics D21 vs Vehicle gp / Statistics D46 vs EGFR-L109A-P1: one way ANOVA post hoc Tukey
Procedure: Tumor growth was monitored regularly post cell inoculation and animals were randomized into treatment groups (n=7) with a mean tumor volume of about 150 mm^3. […] The ADCs were administered intravenously (i.v.) once at the start of treatment at 7.5 mg/kg in combination with 7.5 mg/kg docetaxel (Zentiva: 1 ml/20 mg), which was administered i.v. once 24 h after the ADCs. Doses were adjusted to individual mouse body weights.
As a measure of efficacy, the %T/C value was calculated on day 21 according to:
(Δtumor volume treated/Δtumor volume control)*100 Tumor regression was calculated according to: […]
Where Δtumor volumes represent the mean tumor volume on the evaluation day minus the mean tumor volume at the start of the experiment.

[2] = ADC stability study: % aggregates by SEC after incubation at 37° C. for 168 h; format: physicochemical
Procedure: Size Exclusion Chromatography: Size exclusion chromatography (SEC) was performed for quality control of each ADCs by measuring monomer percentage of the conjugate. The analysis was performed on analytical column Superdex 200 Increase 5/150 GL (GE Healthcare, 28990945) in isocratic conditions 100% PBS pH7.4 (Sigma Life Science, P3813, 10PAK), flow 0.45 mI/min for 12 minutes. The % aggregate fraction of the conjugate sample was quantified based on the peak area absorbance at 280 nm. Its calculation was based on the ratio between the high molecular weight eluent at 280 nm divided by the sum of peak area absorbance at the same wavelength of the high molecular weight and monomeric eluents multiplied by 100.
Characterization of the exemplary ADCs is summarized in Table 13 (coupling, LC-MS method, OAR, aggregation status, ADO stability and yield). The average OAR values were determined using the above LC-MS methods and the percentage of aggregates was measured by size exclusion chromatography (SEC) during the quality control of the ADO and after the stability study (incubation at 37° C. for 168 h).

HCC1569 cells = assay: CellTiterGlo (CTG) cell viability, 120 h, HCC1569, single agent or with 10 nM Paclitaxel; format: cell-based
Procedure: HCC1569 cells were cultivated in RPMI supplemented with 10% heat inactivated fetal bovine serum, penicillin (100 IU/ml), streptomycin (100 μg/ml) and L-glutamine (2 mM). Cell lines were cultured at 37° C. in a humidified atmosphere containing 5% 002. […] Effects of ADCs on cell viability were assessed after 5 days of incubation at 37° C./5% CO2 by quantification of cellular ATP levels using CellTiterGlo at 75 μL reagent/well. All the conditions were tested in triplicates. Luminescence was quantified on a multipurpose plate reader. IC50s were calculated using standard four-parametric curve fitting.

SMILES	Regression (%) ([1]; day 21)	ΔTumor volume (mm^3) D21 ([1]; day 21) [mm^3]	Statistics 21 vs EGFR-L109A-P1 [1]	Statistics D21 vs Vehicle gp [1]	Statistics D46 vs EGFR-L109A-P1 [1]	Stab w1 +37° C. % Agg (by SEC) [2] [%]	IC50 (HCC1569 cells; read-out: HCC1569 CTG 120 h IC50 nM + Paclitaxel 10 nM Mean N1 and N2, in the presence of 10 nM Paclitaxel, mean) [nM]	IC50 (HCC1569 cells; read-out: HCC1569 CTG 120 h IC50 nM + Paclitaxel 10 nM N1, in the presence of 10 nM Paclitaxel, N1) [nM]	IC50 (HCC1569 cells; read-out: HCC1569 CTG 120 h IC50 nM + Paclitaxel 10 nM N2, in the presence of 10 nM Paclitaxel, N2) [nM]	IC50 (HCC1569 cells; read-out: HCC1569 CTG 120 h IC50 nM Mean N1 and N2, single agent, mean) [nM]	IC50 (HCC1569 cells; read-out: HCC1569 CTG 120 h IC50 nM N1, single agent, N1) [nM]	IC50 (HCC1569 cells; read-out: HCC1569 CTG 120 h IC50 nM N2, single agent, N2) [nM]	T/C (%) D21 ([1]; day 21) [%]
Cc1c(Nc2nc3ccccc3s2)nnc2c1CCCN2c1ccc(-c2cnn(CC34CC5(C)CC(C)(C3)CC(OCCN(CCCO)C(=O)OCc3ccc(NC(=O)[C@H](CCCNC(N)=O)NC(=O)[C@@H](NC(=O)CCOCCN6C(=O)CC(C)C6=O)C(C)C)cc3CN(C)C(=O)CCOCCOCCOCCOCCOCCOCCOCCOCCOCCOCCOCCOCCOCCOCCOCCOCCOCCOCCOCCOCCOCCOCCOCCOCCOCCC(=O)O)(C5)C4)c2C)c(C(=O)O)n1 (stereo partly drawn) [EGFR1-L11C-P25]	−50	−76 ± 17	P < 0.05	P < 0.05	P < 0.05								
CNCCOCCOCCNC(=O)OC[C@@H]1[C@@H]2CCc3nnn(CCOCCOCCOCC(=O)N[C@H](C(=O)N[C@@H](CCCNC(N)=O)C(=O)Nc4ccc(COC(=O)N(C)CC#Cc5ccc(OCCCc6sc(N(C)c7cc(C)c(Nc8nc9ccccc9s8)nn7)nc6C(=O)O)c(F)c5)cc4)C(C)C)c3CC[C@@H]21 [Ab T - L23C-P7]						4	0.213	0.287	0.139	> 300	> 300	> 300	
Cc1c(Nc2nc3ccccc3s2)nnc2c1CCCN2c1ccc(-c2cnn(CC34CC5(C)CC(C)(C3)CC(OCC[N+]3(Cc6ccc(NC(=O)[C@H](CCCNC(N)=O)NC(=O)[C@@H](NC(=O)CCOCCN7C(=O)CC(C)C7=O)C(C)C)cc6CN(C)C(=O)CCOCCOCCOCCOCCOCCOCCOCCOCCOCCOCCOCCOCCOCCOCCOCCOCCOCCOCCOCCOCCOCCOCCOCCOCCOCCC(=O)O)CCCC3)(C5)C4)c2C)c(C(=O)O)n1 (stereo partly drawn) [EGFR1-L11A-P21]	−8	−16 ± 20		P < 0.05	P < 0.05								
Cc1c(Nc2nc3ccccc3s2)nnc2c1CCCN2c1ccc(-c2cnn(CC34CC5(C)CC(C)(C3)CC(OCCN(CC[C@H](O)CO)C(=O)OCc3ccc(NC(=O)[C@H](CCCNC(N)=O)NC(=O)[C@@H](NC(=O)CCOCCN6C(=O)CC(C)C6=O)C(C)C)cc3CN(C)C(=O)CCOCCOCCOCCOCCOCCOCCOCCOCCOCCOCCOCCOCCOCCOCCOCCOCCOCCOCCOCCOCCOCCOCCOCCOCCOCCC(=O)O)(C5)C4)c2C)c(C(=O)O)n1 (mixture of isomers) [EGFR1-L11C-P19]	−35	−52 ± 21	P < 0.05	P < 0.05	P < 0.05								
Cc1c(Nc2nc3ccccc3s2)nnc2c1CCCN2c1ccc(-c2cnn(CC34CC5(C)CC(C)(C3)CC(OCC[N+](C)(C)Cc3ccc(NC(=O)[C@H](CCCNC(N)=O)NC(=O)[C@@H](NC(=O)CCOCCN6C(=O)CC(C)C6=O)C(C)C)cc3CN(C)C(=O)CCOCCOCCOCCOCCOCCOCCOCCOCCOCCOCCOCCOCCOCCOCCOCCOCCOCCOCCOCCOCCOCCOCCOCCOCCOCCC(=O)O)(C5)C4)c2C)c(C(=O)O)n1 (stereo partly drawn) [EGFR1-L11A-P27]		14 ± 18		P < 0.05									3
